In brackets after ≈: the same amount, converted by molar mass. Where two headings read alike, the source gives them in different places.
Key:
Type in all cases: cell-based
[1] = tested on: Salmonella schottmuelleri; assay: MIC vs. aerobic bacteria, microplate broth-dilution (BHI); settings: S. schottmuelleri UC 126
Description: (§1) The Minimal Inhibitory Concentration (MIC's) of both compounds Vs. aerobic bacteria is determined using a standard microplate broth-dilution method. Brain Heart Infusion (BHI-Difco) broth medium is used, and the plates are incubated at 37° C. for 20 hrs.

Escherichia coli = assay: as above; settings: UC45, 20 h, E. coli UC 45, read-out: MIC
Description: as §1

Pseudomonas aeruginosa = assay: as above; settings: UC95, 20 h, Ps. aeruginosa UC 95, read-out: MIC
Description: as §1

Diplococcus pneumoniae = assay: as above; settings: D. pneumoniae UC 41
Description: as §1

Klebsiella pneumoniae = assay: as above; settings: K. pneumoniae UC 58
Description: as §1

Streptococcus faecalis = assay: as above; settings: St. faecalis UC 694
Description: as §1

Proteus vulgaris = assay: as above; settings: P. vulgaris UC 93
Description: as §1

S. hemolyticus = assay: MIC, test procedure as given supra; settings: S. hemolyticus UC 152
Description: as §1
The Minimal Inhibitory Concentration (MIC's) of a representative number of the compounds prepared in Examples 2-8 follows. The test procedure is as given supra.

Staphylococcus aureus = assay: MIC vs. aerobic bacteria, microplate broth-dilution (BHI)
[2] = Streptococcus pneumoniae, UC41, 20 h, read-out: MIC
[3] = Klebsiella pneumoniae, UC58, 20 h, read-out: MIC
[4] = Enterococcus faecalis, UC694, 20 h, read-out: MIC
[5] = Proteus vulgaris, UC93, 20 h, read-out: MIC
[6] = Staphylococcus aureus, UC76, 20 h, S. aureus UC 76, read-out: MIC
[7] = Staphylococcus aureus, UC570, 20 h, S. aureus UC 570, read-out: MIC
[8] = Staphylococcus aureus, UC746, 20 h, S. aureus UC 746, read-out: MIC

Structure (SMILES) | MIC ([1]; Salmonella, UC126, 20 h) [µg/mL] | MIC (Escherichia coli) [µg/mL] | MIC (Pseudomonas aeruginosa) [µg/mL] | MIC (Diplococcus pneumoniae; [2]) [µg/mL] | MIC (Klebsiella pneumoniae; [3]) [µg/mL] | MIC (Streptococcus faecalis; [4]) [µg/mL] | MIC (Proteus vulgaris; [5]) [µg/mL] | MIC (S. hemolyticus; UC152, 20 h, read-out: MIC) [µg/mL] | MIC (Staphylococcus aureus; [6]) [µg/mL] | MIC (Staphylococcus aureus; [7]) [µg/mL] | MIC (Staphylococcus aureus; [8]) [µg/mL] | other results
CS[C@H]1O[C@H]([C@H](NC(=O)C2CCCCN2CCO)[C@H](C)Cl)[C@H](O)[C@H](O)[C@H]1O (stereo partly drawn) [U-44,469] | > 1000 | > 1000 | > 1000 | 31.3 (≈ 73.3 µM) | > 1000 | 1000 (≈ 2340 µM) | > 1000 | 31.3 (≈ 73.3 µM) | 250 (≈ 586 µM) | 250 (≈ 586 µM) | > 1000 | –
CCc1ccnc(C(=O)N[C@@H]([C@H]2O[C@H](SC)[C@H](O)[C@@H](O)[C@H]2O)[C@H](C)Cl)c1 [U-45,652] | > 1000 | > 1000 | > 1000 | 500 (≈ 1230 µM) | 500 (≈ 1230 µM) | > 1000 | > 1000 | 500 (≈ 1230 µM) | 1000 (≈ 2470 µM) | > 1000 | 1000 (≈ 2470 µM) | –
CCc1ccnc(C(=O)N[C@@H]([C@H]2O[C@H](SC)[C@H](O)[C@@H](O)[C@H]2O)[C@@H](C)O)c1 [U-45,653] | > 1000 | > 1000 | > 1000 | > 1000 | > 1000 | > 1000 | > 1000 | > 1000 | > 1000 | > 1000 | > 1000 | –
CCc1ccc(C(=O)N[C@@H]([C@H]2O[C@H](SC)[C@H](O)[C@@H](O)[C@H]2O)[C@H](C)Cl)nc1 [U-45,656] | 1000 (≈ 2470 µM) | > 1000 | > 1000 | – | 1000 (≈ 2470 µM) | 1000 (≈ 2470 µM) | > 1000 | 3.9 (≈ 9.63 µM) | 62.5 (≈ 154 µM) | 62.5 (≈ 154 µM) | 62.5 (≈ 154 µM) | –
CS[C@H]1O[C@H]([C@H](NC(=O)c2cccnc2Cl)[C@H](C)Cl)[C@H](O)[C@H](O)[C@H]1O [U-45,657] | > 1000 | > 1000 | > 1000 | – | > 1000 | > 1000 | > 1000 | 7.8 (≈ 19 µM) | 125 (≈ 304 µM) | 250 (≈ 608 µM) | 250 (≈ 608 µM) | –
CS[C@H]1O[C@H]([C@H](NC(=O)c2ccccn2)[C@H](C)Cl)[C@H](O)[C@H](O)[C@H]1O [U-45,863] | > 1000 | > 1000 | > 1000 | 62.5 (≈ 166 µM) | > 1000 | – | > 1000 | 2 (≈ 5.31 µM) | 62.5 (≈ 166 µM) | – | – | –
CS[C@H]1O[C@H]([C@H](NC(=O)c2ccccn2)[C@H](C)O)[C@H](O)[C@H](O)[C@H]1O [U-46,135] | > 1000 | > 1000 | > 1000 | > 1000 | > 1000 | > 1000 | > 1000 | 1000 (≈ 2790 µM) | > 1000 | > 1000 | > 1000 | –
CS[C@H]1O[C@H]([C@H](NC(=O)c2ccccn2)[C@@H](C)O)[C@H](O)[C@H](O)[C@H]1O [U-46,136] | > 1000 | > 1000 | > 1000 | > 1000 | > 1000 | > 1000 | > 1000 | 1000 (≈ 2790 µM) | > 1000 | > 1000 | > 1000 | –
CS[C@H]1O[C@H]([C@H](NC(=O)c2ccncc2)[C@H](C)Cl)[C@H](O)[C@H](O)[C@H]1O [U-46,137] | 1000 (≈ 2650 µM) | 1000 (≈ 2650 µM) | 1000 (≈ 2650 µM) | 500 (≈ 1330 µM) | 1000 (≈ 2650 µM) | > 1000 | > 1000 | 1000 (≈ 2650 µM) | > 1000 | > 1000 | > 1000 | –
CS[C@H]1O[C@H]([C@H](NC(=O)C2CCCCN2)[C@H](C)Cl)[C@H](O)[C@H](O)[C@H]1O (stereo partly drawn) [U-46,337] | > 1000 | > 1000 | > 1000 | – | > 1000 | – | > 1000 | – | – | – | – | MIC (Diplococcus pneumoniae; listed as 46,337): 250 µg/mL (≈ 653 µM); MIC (Streptococcus faecalis; listed as 46,337): > 1000 µg/mL; MIC (S. hemolyticus; listed as 46,337): 250 µg/mL (≈ 653 µM); MIC (Staphylococcus aureus; S. aureus UC 76, listed as 46,337): 1000 µg/mL (≈ 2610 µM); MIC (Staphylococcus aureus; S. aureus UC 570, listed as 46,337): 1000 µg/mL (≈ 2610 µM); MIC (Staphylococcus aureus; S. aureus UC 746, listed as 46,337): 1000 µg/mL (≈ 2610 µM)
CS[C@H]1O[C@H]([C@H](NC(=O)C2CCCCN2)[C@H](C)Cl)[C@H](O)[C@H](O)[C@H]1O (stereo partly drawn) [U-46,465] | – | – | – | – | – | – | – | – | – | – | – | MIC [1]: 1000 µg/mL (≈ 2610 µM); MIC (Diplococcus pneumoniae; listed as 46,465): < 1.0 µg/mL; MIC (Klebsiella pneumoniae): 500 µg/mL (≈ 1310 µM); MIC (Streptococcus faecalis; listed as 46,465): 3.9 µg/mL (≈ 10.2 µM); MIC (Proteus vulgaris): 1000 µg/mL (≈ 2610 µM); MIC (S. hemolyticus; listed as 46,465): < 1.0 µg/mL; MIC (Staphylococcus aureus; S. aureus UC 76, listed as 46,465): 3.9 µg/mL (≈ 10.2 µM); MIC (Staphylococcus aureus; S. aureus UC 570, listed as 46,465): 31.2 µg/mL (≈ 81.5 µM); MIC (Staphylococcus aureus; S. aureus UC 746, listed as 46,465): 3.9 µg/mL (≈ 10.2 µM)
CS[C@H]1O[C@H]([C@H](NC(=O)C2CCCCN2C)[C@H](C)Cl)[C@H](O)[C@H](O)[C@H]1O (stereo partly drawn) [U-46,699] | > 1000 | 1000 (≈ 2520 µM) | > 1000 | < 1 | 250 (≈ 630 µM) | 15.6 (≈ 39.3 µM) | 1000 (≈ 2520 µM) | 3.9 (≈ 9.83 µM) | 3.9 (≈ 9.83 µM) | 7.8 (≈ 19.7 µM) | 7.8 (≈ 19.7 µM) | –
CS[C@H]1O[C@H]([C@H](NC(=O)C2CCCCN2)[C@@H](C)O)[C@H](O)[C@H](O)[C@H]1O (stereo partly drawn) [U-60,492] | – | – | – | – | – | – | – | – | – | – | – | MIC (Diplococcus pneumoniae): 31.2 µg/mL (≈ 85.6 µM); MIC (Streptococcus faecalis): > 1000 µg/mL; MIC (S. hemolyticus): 15.6 µg/mL (≈ 42.8 µM); MIC (Staphylococcus aureus; S. aureus UC 570): > 1000 µg/mL; MIC (Staphylococcus aureus; S. aureus UC 746): 250 µg/mL (≈ 686 µM)
CS[C@H]1O[C@H]([C@H](NC(=O)C2CCCCN2)[C@@H](C)O)[C@H](O)[C@H](O)[C@H]1O (stereo partly drawn) [U-60,493] | > 1000 | > 1000 | > 1000 | 15.6 (≈ 42.8 µM) | > 1000 | 1000 (≈ 2740 µM) | > 1000 | 7.8 (≈ 21.4 µM) | 1000 (≈ 2740 µM) | 1000 (≈ 2740 µM) | 250 (≈ 686 µM) | –

From patent US4310660A, “Lincomycin compounds” (The Upjohn Company, priority 1980, dated 1982)
